Active and inactive are the calls of the source. The calls are words filed in the database; no cut-off is given here.
Experiments:
[1] = system: SMMC-7721; test: Cytotoxicity against human SMMC7721 cells after 24 hrs by MTT assay; assay type: functional, cell-based; settings: SMMC-7721, 24 h
[2] = system: HepG2; test: Induction of apoptosis in human HepG2 cells assessed as increase in p53 protein expression treated at 1 hr post antioxidant alpha-tocopherol addition and measured after 24 hrs by Western blot analysis; assay type: functional, cell-based
[3] = system: SMMC-7721; test: Downregulation of Akt phosphorylation at […] residue in human SMMC7721 cells at 1 to 3 uM after 24 hrs by Western blot analysis; assay type: functional, cell-based
[4] = system: SMMC-7721; test: Antimigratory activity against human SMMC7721 cells treated at 1 hr post antioxidant alpha-tocopherol addition and measured after 24 hrs by scratch wound healing assay; assay type: functional, cell-based
[5] = system: SMMC-7721; test: Downregulation of beta-catenin protein expression in human SMMC7721 cells treated at 1 hr post antioxidant alpha-tocopherol addition and measured after 24 hrs by Western blot analysis; assay type: functional, cell-based
[6] = system: HepG2; test: Induction of ROS generation in human HepG2 cells at 1 to 3 uM after 24 hrs in presence of antioxidant alpha-tocopherol by DCFH-DA staining based HCS analysis; assay type: functional, cell-based
[7] = system: SMMC-7721; test: Induction of autophagy in human SMMC7721 cells assessed as decrease in p62 level at 1 to 3 uM by Western blot analysis; assay type: functional, cell-based
[8] = system: SMMC-7721; test: Induction of autophagy in human SMMC7721 cells assessed as vacuolization after 12 hrs; assay type: functional, cell-based
[9] = system: HepG2; test: Induction of apoptosis in human HepG2 cells after 24 hrs by acridine orange/ethidium bromide and Hoechst 33342 staining based HCS analysis; assay type: functional, cell-based
[10] = system: HepG2; test: Induction of autophagy in human HepG2 cells assessed as increase in LC3-2 protein expression treated at 1 hr post antioxidant alpha-tocopherol addition and measured after 24 hrs by Western blot analysis; assay type: functional, cell-based
[11] = system: SMMC-7721; test: Cytotoxicity against human SMMC7721 cells assessed as cell rounding after 24 hrs; assay type: functional, cell-based
[12] = system: HepG2; test: Induction of autophagy in human HepG2 cells assessed as decrease in p62 level at 1 to 3 uM by Western blot analysis; assay type: functional, cell-based
[13] = system: HepG2; test: Induction of apoptosis in human HepG2 cells at 3 uM after 48 hrs by Annexin V/propidium iodide staining based flow cytometry relative to control; assay type: functional
[14] = system: HCT-116; test: Cytotoxicity against human HCT116 cells after 48 hrs by MTT assay; assay type: functional, cell-based; settings: HCT-116, 48 h
[15] = system: HepG2; test: Induction of apoptosis in human HepG2 cells assessed as increase in p53 protein expression at 1 to 3 uM after 24 hrs by Western blot analysis; assay type: functional, cell-based
[16] = system: HepG2; test: Induction of autophagy in human HepG2 cells assessed as increase in LC3-2 level by Western blot analysis; assay type: functional, cell-based
[17] = system: SMMC-7721; test: Induction of apoptosis in human SMMC7721 cells after 24 hrs by Annexin V/propidium iodide staining based flow cytometry; assay type: functional, cell-based
[18] = system: HepG2; test: Potency index, ratio of amonafide IC50 to compound IC50 for cytotoxicity against human HepG2 cells; assay type: functional
[19] = system: HepG2; test: Induction of ROS generation in human HepG2 cells at 1 to 3 uM after 24 hrs by DCFH-DA staining based HCS analysis; assay type: functional, cell-based
[20] = system: HepG2; test: Downregulation of beta-catenin protein expression in human HepG2 cells treated at 1 hr post antioxidant alpha-tocopherol addition and measured after 24 hrs by Western blot analysis; assay type: functional, cell-based
[21] = system: SMMC-7721; test: Induction of apoptosis in human SMMC7721 cells assessed as increase in caspase-8 activation at 1 to 3 uM after 24 hrs by Western blot analysis; assay type: functional, cell-based
[22] = system: SMMC-7721; test: Antimigratory activity against human SMMC7721 cells at 1 to 3 uM after 24 hrs by crystal violet staining based transwell migration assay; assay type: functional, cell-based
[23] = system: HepG2; test: Downregulation of Akt phosphorylation at […] residue in human HepG2 cells at 1 to 3 uM after 24 hrs by Western blot analysis; assay type: functional, cell-based
[24] = system: HepG2; test: Cytotoxicity against human HepG2 cells assessed as cell rounding after 24 hrs; assay type: functional, cell-based
[25] = system: HepG2; test: Induction of apoptosis in human HepG2 cells assessed as increase in caspase-8 activation at 1 to 3 uM after 24 hrs by Western blot analysis; assay type: functional, cell-based
[26] = system: MDA-MB-231; test: Cytotoxicity against human MDA-MB-231 cells after 48 hrs by MTT assay; assay type: functional, cell-based; settings: MDA-MB-231, 48 h
[27] = system: SMMC-7721; test: Cytotoxicity against human SMMC7721 cells assessed as reduction in cell viability treated at 1 hr post antioxidant alpha-tocopherol addition by MTT assay; assay type: functional, cell-based
[28] = system: SMMC-7721; test: Induction of autophagy in human SMMC7721 cells assessed as increase in BECN1 level at 1 to 3 uM by Western blot analysis; assay type: functional, cell-based
[29] = system: HepG2; test: Induction of apoptosis in human HepG2 cells assessed as increase in cleaved PARP1 protein expression at 1 to 3 uM after 24 hrs by Western blot analysis; assay type: functional, cell-based
[30] = system: SMMC-7721; test: Induction of apoptosis in human SMMC7721 cells at 3 uM after 48 hrs by Annexin V/propidium iodide staining based flow cytometry relative to control; assay type: functional
[31] = system: HepG2; test: Induction of autophagy in human HepG2 cells after 24 hrs by MDC staining based HCS analysis; assay type: functional, cell-based
[32] = system: SMMC-7721; test: Induction of autophagy in human SMMC7721 cells assessed as vacuolization at 2 uM after 12 hrs by transmission electron microscopic method; assay type: functional, cell-based
[33] = system: SMMC-7721; test: Induction of apoptosis in human SMMC7721 cells assessed as increase in p53 protein expression treated at 1 hr post antioxidant alpha-tocopherol addition and measured after 24 hrs by Western blot analysis; assay type: functional, cell-based
[34] = Cytotoxicity against human QSG7701 cells after 48 hrs by MTT assay; assay type: cell-based; settings: QSG7701, 48 h
[35] = system: SMMC-7721; test: Induction of autophagy in human SMMC7721 cells assessed as autophagosome formation at 2 uM after 12 hrs by transmission electron microscopic method; assay type: functional, cell-based
[36] = system: SMMC-7721; test: Induction of apoptosis in human SMMC7721 cells assessed as increase in p53 protein expression at 1 to 3 uM after 24 hrs by Western blot analysis; assay type: functional, cell-based
[37] = system: HepG2; test: Cytotoxicity against human HepG2 cells after 48 hrs by MTT assay; assay type: functional, cell-based; settings: HepG2, 48 h
[38] = system: HepG2; test: Cytotoxicity against human HepG2 cells assessed as cytoplasm shrinkage after 24 hrs; assay type: functional, cell-based
[39] = system: SMMC-7721; test: Induction of apoptosis in human SMMC7721 cells assessed as increase in cleaved PARP1 protein expression treated at 1 hr post antioxidant alpha-tocopherol addition and measured after 24 hrs by Western blot analysis; assay type: functional, cell-based
[40] = system: HepG2; test: Cytotoxicity against human HepG2 cells after 24 hrs by MTT assay; assay type: functional, cell-based; settings: HepG2, 24 h
[41] = system: SMMC-7721; test: Induction of apoptosis in human SMMC7721 cells assessed as increase in cleaved PARP1 protein expression at 1 to 3 uM after 24 hrs by Western blot analysis; assay type: functional, cell-based
[42] = system: SMMC-7721; test: Induction of autophagy in human SMMC7721 cells assessed as increase in LC3-2 protein expression treated at 1 hr post antioxidant alpha-tocopherol addition and measured after 24 hrs by Western blot analysis; assay type: functional, cell-based
[43] = system: SMMC-7721; test: Downregulation of beta-catenin protein expression in human SMMC7721 cells at 1 to 3 uM after 24 hrs by Western blot analysis; assay type: functional, cell-based
[44] = system: SMMC-7721; test: Induction of autophagy in human SMMC7721 cells after 24 hrs by MDC staining based HCS analysis; assay type: functional, cell-based

In the case of CCCCN1C(=O)c2ccc3c4c(ccc(c24)C1=O)C(=O)N(CCCN(C)C)C3=O, the IC50 [1] is reported as 5.38 µM, the Activity [2] is reported as “inactive” and the Activity [3] is reported as “Active”. The Activity [4] was “inactive”, the Activity [5] was “inactive” and the Activity [6] was “inactive”. For the same molecule, the Activity [7] was “Active”, the Activity [8] was “Active” and the Activity [9] was “Dose-dependent effect”. The Activity [10] was “inactive”, the Activity [11] was “Active” and the Activity [12] was “Active”. For the same molecule, the Activity [13] was 67.8%, the IC50 [14] was 14.7 µM and the Activity [15] was “Active”. The Activity [16] was “Dose-dependent effect”, the Activity [17] was “Dose-dependent effect” and the “Ratio IC50” value [18] was 5. The Activity [19] was “Active”, the Activity [20] was “inactive” and the Activity [21] was “Active”. For the same molecule, the Activity [22] was “Active”, the Activity [23] was “Active” and the Activity [24] was “Active”. The Activity [25] was “Active”, the IC50 [26] was 5.79 µM and the Activity [27] was “inactive”. The Activity [28] was “Active”, the Activity [29] was “Active” and the Activity [30] was 52.1%. For the same molecule, the Activity [31] was “Dose-dependent effect”, the Activity [32] was “Active” and the Activity [33] was “inactive”. For the same molecule, the IC50 [34] was 7.11 µM, the Activity [35] was “Active” and the Activity [36] was “Active”. For the same molecule, the IC50 [37] was 1.48 µM, the Activity [38] was “Active” and the Activity [39] was “inactive”. For the same molecule, the IC50 [40] was 4.29 µM, the Activity [41] was “Active” and the Activity [42] was “inactive”. For the same molecule, the Activity [43] was “Active” and the Activity [44] was “Dose-dependent effect”.

From ChEMBL document CHEMBL4257544, “Synthesis and biological evaluation of novel asymmetric naphthalene diimide derivatives as anticancer agents depending on ROS generation” (Medchemcomm, 2018)
